These results are taken from US12286451B2, “Borate ester complexes of α-hydroxy carboxylic acids and their conjugate base buffers” (Medtech Products Inc., priority 2020, dated 2025).

The nature of data set [1]: Molar titration of boric acid/α-hydroxy acid reaction products with 0.1N sodium hydroxide. The settings on record: for pKa: 5.0 ml solution, pH at half of the end point; for Capacity (buffer capacity): titrant required to raise the pH one unit from the pKa value. Format: physicochemical. As for the experimental part:
(§1) Reaction products of boric acid and α-hydroxy carboxylic acids were prepared by diluting pre-made stock solution of 0.4M boric acid and 0.4M, 0.6M, and 0.8M α-hydroxy carboxylic acid. [table] Each reaction mixture was allowed to mix for a minimum of two hours before subsequent titration with 0.1N certified sodium hydroxide solution. Two sets of titrations were performed. The first set of titrations, molar titration, 5.0 ml of each solution is titrated to accurately determine end point and the pKa and pH at half of the end point. The second set of titrations, equivalence titration, solution volumes were adjusted to 0.5 milliequivalent and the buffer capacity determined. For simplicity, buffer capacity is reported as the milliequivalents of titrant required to raise the pH one unit from the pKa value. An exception was made for the 1:3 test ratio in which free α-hydroxy acid and the boric acid ester complex could not be distinguished between.

The nature of data set [2]: Equivalence titration (0.5 milliequivalent) of reaction products with 0.1N sodium hydroxide. Type of data set: physicochemical. The settings on record: equivalent titration; for pKa: volume adjusted to 0.5 milliequivalent; for Capacity (buffer capacity): titrant required to raise the pH one unit from the pKa value. How it is done: as §1

Molecules are shown by their SMILES.

A word on the pKa: it is the negative logarithm of the acid dissociation constant.

Regarding `CC(O)C(=O)O` (stereo not drawn) [Lactic Acid 0, Lactic Acid], in data set [1], the pKa is 4 and the “Capacity (buffer capacity)” value is 11 milliequivalents. In data set [2], the pKa was 4 and the “Capacity (buffer capacity)” value was determined as 11 milliequivalents.

As to `O=C(O)CO` [Glycolic Acid 0, Glycolic Acid], in data set [1], the pKa turned out to be 3.9 and the “Capacity (buffer capacity)” value is 13 milliequivalents. Besides, in data set [2], the pKa came to 3.9 and the “Capacity (buffer capacity)” value is reported as 13 milliequivalents.

As for `O=C(O)CC(O)(CC(=O)O)C(=O)O` [Citric Acid 0, Citric Acid], in data set [1], the pKa worked out at 4.3 and the “Capacity (buffer capacity)” value was found to be 39 milliequivalents. For the same compound, in data set [2], the pKa was 4.3 and the “Capacity (buffer capacity)” value is given as 39 milliequivalents.
